Experimental data as given in patent US20080207694A1, “Hydroxamates as Histone Deacetylase Inhibitors and Pharmaceutical Formulations Containing Them” (priority 2005, published 2008).

What was measured:
[1] = tested on: histone deacetylase (HDAC), nuclear extract of Hela cells; assay: Deacetylase activity on nuclear extract of HeLa cells (Fluor de Lys kit); format: biochemical, human; conditions: percent inhibition relative to control without inhibitor, compound at 0.1 μM
Experimental: (§1) The activity of the compounds as histone deacetylase (HDAC) inhibitors was measured using an in vitro acetylation assay. The compounds were then evaluated as inhibitors of proliferation of human tumor cell cultures.
Deacetylase Activity on Nuclear Extract of Hela Cells (Human Cervical Cancer Cell)
The assay (Fluor de Lys™ kit, BioMol) is divided into two steps: in the first step the substrate which comprises an acetylated lysine residue is reacted with the nuclear extract (HeLa) containing the enzymatic activity in the presence and absence of inhibitors. In the second step a fluorogenic reagent is added which highlights the deacetylated residues. A reduction in fluorescence is obtained where there has been inhibition of the deacetylase activity. The result is finally expressed as percent inhibition relative to the control without inhibitor at a concentration of 0.1 μM.

[2] = tested on: Human colon carcinoma cells HCT-116; assay: Cytotoxic activity on culture of human colon carcinoma cells HCT-116 (Alamar Blue); format: cell-based; conditions: HCT-116 cells, 72 hours after addition of compounds, Alamar Blue viability
Experimental: as §1
24 hours after seeding, the compounds at different concentrations are added. […] 72 hours after addition of the compounds, cell viability is measured by means of the dye Alamar Blue.

**Q.** `O=C(CCCC1CCN(C(=O)[C@H](CCO)NC(=O)c2cc3ccccc3s2)CC1)NO` [Ex 113, Benzo[b]thiophene-2-carboxylic acid{3-hydroxy-1-(S)-[4-(3-hydroxycarbamoyl-propyl)-piperidine-1-carbonyl]-propyl}-amide] was tested. Which “% inhib. 0.1 μM” value [1] did it give?
**A.** The value was 61%.

**Q.** And the IC50 [2]?
**A.** The IC50 was 0.27 µM.

**Q.** Which “% inhib. 0.1 μM” value [1] does the source give for `O=C(CCCC1CCN(C(=O)Nc2ccc(Cl)cc2F)CC1)NO` [Ex 90, 4-(3-Hydroxycarbamoyl-propyl)-piperidine-1-carboxylic acid (4-chloro-2-fluoro-phenyl)-amide] here?
**A.** The value was 56%.

**Q.** And the IC50 ([2]; Homo sapiens, HCT-116, 72 h)?
**A.** The IC50 was 0.45 µM.

**Q.** How did the “% inhib. 0.1 μM” value [1] turn out when `O=C(CCCC1CCN(C(=O)[C@@H](CO)NC(=O)c2cc3ccccc3s2)CC1)NO` [Ex 102, Benzo[b]thiophene-2-carboxylic acid {2-[4-(3-hydroxycarbamoyl-propyl)-piperidin-1-yl]-1-(R)-hydroxymethyl-2-oxo-ethyl}-amide] was run?
**A.** Its value is 54%.

**Q.** And the IC50 ([2]; Homo sapiens, HCT-116, 72 h)?
**A.** Its IC50 is 0.79 µM.

**Q.** With `O=C(CCCC1CCN(C(=O)CCNCc2ccccc2)CC1)NO` [Ex 164, 4-[1-(3-Benzylamino-propionyl)-piperidin-4-yl]-N-hydroxy-butyramide] as the compound, how does the “% inhib. 0.1 μM” value [1] read?
**A.** Its value is 51%.

**Q.** What about the IC50 ([2]; Homo sapiens, HCT-116, 72 h) of the same compound?
**A.** The IC50 was 0.6 µM.
